Measured values reported in ChEMBL document CHEMBL1201862, “PubChem BioAssay data set” (2004).
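Five concentrations, 48 hours, 96-well plates. Abbreviation: GI50, concentration required for 50% inhibition of growth.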 Activity calls are given as the source filed them. Rule as the data show it: active = GI50 up to about 1.1 µM and inactive = higher.

What was measured:
Assay in all cases: DTP human tumour cell line panel, 48 h
786-0 = test system: 786-0
A549 = test system: A549
BT-549 = test system: BT-549
DU-145 = test system: DU-145
EKVX = test system: EKVX
HCC 2998 = test system: HCC 2998
HCT-116 = test system: HCT-116
HOP-92 = test system: HOP-92
IGROV-1 = test system: IGROV-1
M14 = test system: M14
MCF7 = test system: MCF7
MOLT-4 = test system: MOLT-4
NCI/ADR-RES = test system: NCI/ADR-RES
SF-268 = test system: SF-268
SF-295 = test system: SF-295
SF-539 = test system: SF-539
SK-MEL-28 = test system: SK-MEL-28
SK-MEL-2 = test system: SK-MEL-2
SNB-19 = test system: SNB-19
UACC-62 = test system: UACC-62

Measured: GI50

CC(=O)Nc1ccc(-c2nc3cc(Cl)ccc3o2)cc1
inactive: 786-0 > 50 µM | A549 > 50 µM | BT-549 > 50 µM | DU-145 > 50 µM | EKVX > 50 µM | HCC 2998 40.1 µM | HCT-116 > 50 µM | HOP-92 > 50 µM | IGROV-1 > 50 µM | M14 > 50 µM | MCF7 > 50 µM | MOLT-4 > 50 µM | NCI/ADR-RES > 50 µM | SF-268 > 50 µM | SF-295 > 50 µM | SF-539 > 50 µM | SK-MEL-28 > 50 µM | SK-MEL-2 > 50 µM | SNB-19 > 50 µM | UACC-62 > 50 µM

NC(=O)NC(=O)c1cccc(CNc2ccc(C(=O)N[C@@H](CCC(=O)O)C(=O)O)cc2)n1
inactive: 786-0 > 100 µM | A549 > 100 µM | BT-549 > 100 µM | DU-145 > 100 µM | EKVX > 100 µM | HCC 2998 > 100 µM | HCT-116 > 100 µM | HOP-92 > 100 µM | IGROV-1 > 100 µM | M14 > 100 µM | MCF7 > 100 µM | MOLT-4 > 100 µM | NCI/ADR-RES > 100 µM | SF-268 > 100 µM | SF-295 > 100 µM | SF-539 > 100 µM | SK-MEL-28 > 100 µM | SK-MEL-2 > 100 µM | UACC-62 4 µM

COc1cc(/C=N/N=C2NCCN2)ccc1O
inactive: 786-0 > 100 µM | A549 > 100 µM | BT-549 > 100 µM | DU-145 > 100 µM | EKVX > 100 µM | HCC 2998 > 100 µM | HCT-116 > 100 µM | HOP-92 > 100 µM | IGROV-1 > 100 µM | M14 > 100 µM | MCF7 > 100 µM | MOLT-4 > 100 µM | NCI/ADR-RES > 100 µM | SF-268 > 100 µM | SF-295 68.5 µM | SF-539 > 100 µM | SK-MEL-28 > 100 µM | SK-MEL-2 > 100 µM | SNB-19 > 100 µM | UACC-62 > 100 µM

C=CC1(C)CCC2C(=CCC3C2(C)CC(O)C(O)C3(C)COC2OC(CO)C(O)C(O)C2O)C1 (configuration not stated)
inactive: 786-0 > 100 µM | A549 > 100 µM | BT-549 > 100 µM | DU-145 > 100 µM | EKVX > 100 µM | HCC 2998 > 100 µM | HCT-116 > 100 µM | HOP-92 > 100 µM | IGROV-1 > 100 µM | M14 > 100 µM | MCF7 > 100 µM | MOLT-4 68.1 µM | NCI/ADR-RES > 100 µM | SF-268 > 100 µM | SF-295 > 100 µM | SF-539 > 100 µM | SK-MEL-28 > 100 µM | SK-MEL-2 > 100 µM | SNB-19 44.8 µM | UACC-62 > 100 µM

CN1CCc2[nH]nc(-c3n[nH]c4c3CN(C)CC4)c2C1
inactive: 786-0 > 100 µM | A549 > 100 µM | BT-549 > 100 µM | DU-145 > 100 µM | EKVX > 100 µM | HCC 2998 > 100 µM | HCT-116 > 100 µM | HOP-92 > 100 µM | IGROV-1 > 100 µM | M14 > 100 µM | MCF7 > 100 µM | MOLT-4 > 100 µM | NCI/ADR-RES > 100 µM | SF-268 > 100 µM | SF-295 > 100 µM | SF-539 > 100 µM | SK-MEL-28 44.9 µM | SK-MEL-2 > 100 µM | SNB-19 > 100 µM | UACC-62 > 100 µM

CCCC(=O)OC[n+]1cccc(-c2c(COC(=O)NC(C)C)c(COC(=O)NC(C)C)c3n2CCC3)c1
inactive: 786-0 37.5 µM | A549 89.5 µM | BT-549 > 79.6 µM | DU-145 43.2 µM | EKVX > 100 µM | HCC 2998 > 100 µM | HCT-116 19.7 µM | HOP-92 32.4 µM | IGROV-1 > 46.3 µM | M14 50.9 µM | MCF7 40 µM | MOLT-4 13.6 µM | NCI/ADR-RES 61.8 µM | SF-268 32 µM | SF-295 71.9 µM | SF-539 28.8 µM | SK-MEL-28 > 100 µM | SK-MEL-2 > 82.6 µM | SNB-19 > 100 µM | UACC-62 20.1 µM

CC(C)(C)OC(=O)NCCCCC(N)NC(=O)c1ccccc1 (configuration not stated)
inactive: 786-0 > 100 µM | A549 > 100 µM | BT-549 > 100 µM | DU-145 > 100 µM | EKVX > 100 µM | HCC 2998 > 100 µM | HCT-116 > 100 µM | HOP-92 > 100 µM | IGROV-1 > 100 µM | M14 > 100 µM | MCF7 > 100 µM | MOLT-4 > 100 µM | NCI/ADR-RES > 100 µM | SF-268 > 100 µM | SF-295 > 100 µM | SF-539 > 100 µM | SK-MEL-28 > 100 µM | SK-MEL-2 > 100 µM | SNB-19 > 100 µM | UACC-62 > 100 µM

O=C(c1c2c(cc3c1CC1(Cc4cc5c(cc4C1)CCCC5)C3)CCCC2)C(Br)Br
inactive: 786-0 14.6 µM | A549 43.8 µM | BT-549 5.48 µM | DU-145 > 58.5 µM | EKVX 34.7 µM | HCC 2998 21.5 µM | HCT-116 14.9 µM | HOP-92 13.4 µM | IGROV-1 9.02 µM | M14 4.18 µM | MCF7 7.67 µM | MOLT-4 1.85 µM | NCI/ADR-RES 19.4 µM | SF-268 14.6 µM | SF-295 58.6 µM | SF-539 20.2 µM | SK-MEL-28 16.5 µM | SK-MEL-2 19.2 µM | SNB-19 > 40.9 µM | UACC-62 14.9 µM

NS(=O)(=O)c1nnc(NC(=O)Nc2ccc(Cl)c(Cl)c2)s1
inactive: 786-0 24.3 µM | A549 31 µM | BT-549 20 µM | DU-145 29.4 µM | EKVX 28.8 µM | HCC 2998 18.7 µM | HCT-116 19.5 µM | HOP-92 16.3 µM | M14 16.8 µM | MCF7 26.9 µM | MOLT-4 32.5 µM | NCI/ADR-RES 21 µM | SF-268 24.7 µM | SF-295 31.7 µM | SF-539 19 µM | SK-MEL-28 17.1 µM | SK-MEL-2 25.4 µM | SNB-19 21 µM | UACC-62 16.2 µM

NC(=S)N/N=C(/C(=O)Nc1nc2ccc([N+](=O)[O-])cc2s1)C1C(=O)NC(=S)NC1=O
inactive: 786-0 > 100 µM | A549 > 100 µM | BT-549 70.1 µM | DU-145 > 100 µM | HCC 2998 56 µM | HCT-116 > 100 µM | HOP-92 77.6 µM | M14 > 100 µM | MCF7 > 100 µM | MOLT-4 > 100 µM | NCI/ADR-RES > 100 µM | SF-268 88.9 µM | SF-295 42.2 µM | SF-539 49 µM | SK-MEL-28 > 100 µM | SK-MEL-2 > 100 µM | SNB-19 76.6 µM | UACC-62 > 100 µM

O=C1Nc2ccccc2/C1=N/N=C1NCCCCN1
inactive: 786-0 > 100 µM | A549 > 100 µM | BT-549 > 100 µM | DU-145 > 100 µM | EKVX > 100 µM | HCC 2998 > 100 µM | HCT-116 > 100 µM | HOP-92 > 100 µM | IGROV-1 > 100 µM | M14 > 100 µM | MCF7 > 100 µM | MOLT-4 > 100 µM | NCI/ADR-RES > 100 µM | SF-268 > 100 µM | SF-295 > 100 µM | SF-539 > 100 µM | SK-MEL-2 > 100 µM | SNB-19 > 100 µM | UACC-62 > 100 µM

CCN(CC)CCNC(=O)c1ccc(I)cc1
inactive: 786-0 > 100 µM | A549 > 100 µM | BT-549 > 100 µM | DU-145 > 100 µM | EKVX > 100 µM | HCC 2998 > 100 µM | HCT-116 > 100 µM | HOP-92 > 100 µM | IGROV-1 > 100 µM | M14 > 100 µM | MCF7 > 100 µM | MOLT-4 > 100 µM | NCI/ADR-RES > 100 µM | SF-268 > 100 µM | SF-295 > 100 µM | SF-539 > 100 µM | SK-MEL-28 > 100 µM | SK-MEL-2 > 100 µM | SNB-19 > 100 µM

CCN(CC)c1ccc2cc(C(=O)Nc3cccc4ccccc34)c(=N)oc2c1
inactive: 786-0 16.8 µM | A549 75.9 µM | BT-549 24 µM | DU-145 > 100 µM | EKVX > 100 µM | HCC 2998 > 100 µM | HCT-116 > 100 µM | HOP-92 > 100 µM | IGROV-1 > 100 µM | M14 38.8 µM | MCF7 > 100 µM | NCI/ADR-RES > 100 µM | SF-268 > 100 µM | SF-295 45.5 µM | SF-539 72.9 µM | SK-MEL-28 58.5 µM | SK-MEL-2 > 100 µM | SNB-19 52.8 µM | UACC-62 63.4 µM

Cc1cccc(NC(=S)Nc2ccc([N+](=O)[O-])cc2)n1
inactive: 786-0 > 100 µM | BT-549 > 100 µM | DU-145 > 100 µM | EKVX > 100 µM | HCC 2998 > 100 µM | HCT-116 > 100 µM | HOP-92 > 100 µM | IGROV-1 > 100 µM | M14 > 100 µM | MCF7 > 100 µM | MOLT-4 > 100 µM | NCI/ADR-RES > 100 µM | SF-268 > 100 µM | SF-295 > 100 µM | SF-539 > 100 µM | SK-MEL-28 > 100 µM | SK-MEL-2 > 100 µM | SNB-19 > 100 µM | UACC-62 > 100 µM
